The record followed here is patent US20160212997A1, “AGRICULTURAL CHEMICALS” (REDAG CROP PROTECTION LTD, priority 2013, published 2016).

Like-named read-outs stand apart in the source and are kept apart here.

The test system of test [1] is aphids, Myzus persicae. The test is described as follows: Potter tower spray on aphids, knockdown and mortality. The format is in vivo. The note with it: Myzus persicae, read-out: Average of % corrected affected; for pest or weed control at 0.00625 % strength: 0.00625 % w/v; for pest or weed control at 0.0125 % strength: 0.0125 % w/v; for pest or weed control at 0.025 % strength: 0.025 % w/v; for pest or weed control at 0.05 % strength: 0.05 % w/v; for pest or weed control at 0.1 % strength: 0.1 % w/v. From the text: The compounds were screened for insecticidal efficacy against aphids, Myzus persicae, Cabbage moth, Mamestra brassicae, diamond black moths, Plutella xylostella, red spider mites, Tetranychus urticae, whitefly, Trialeurodes vaporariorum, in terms of knockdown and mortality.
(§1) Myzus persicae, Cabbage moth, Mamestra brassicae, diamond back moths, Plutella xylostella, red spider mites, Tetranychus urticae, whitefly, Trialeurodes vaporariorum, were obtained from specified laboratory cultures. Mixed sex and age aphids and mites, moth larvae and whitefly scale infested leaves were used in the experiments. Environmental conditions were closely monitored and recorded and were within the optimal range of the target species.
(§2) The compounds were screened at a range of five concentrations, diluted in DMSO. Some of the compounds were screened against aphids, whitefly and red spider mites and other compounds were screened against cabbage moth, and diamond black moths. A carrier only and an untreated control will also be conducted. Treatments were applied directly onto the insects within Petri dishes, using a potter tower.
(§3) Twenty mites and ten aphids, scales and moth larvae were placed within a Petri dish, lined with a suitable leaf disc on a damp cotton wool pad. Scales were already on leaves. The Petri dishes were then sprayed using a potter tower. The number of knocked down and anthropods were assessed at 24 and 48 hours post treatment. Five replicates were be performed for each treatment, for each species.
(§4) For Tables 2, 4, 5 and 6, the compounds were diluted in DMSO containing 1% v/v Tween 20™. For Tables 2, 4, 5 and 6, the caterpillars were a mixture of Mamestra brassicae and Lacanobia oleracea.

Test [2] relates to caterpillars, a mixture of Mamestra brassicae and Lacanobia oleracea. The test is described as follows: Potter tower spray on caterpillars, knockdown and mortality. The note with it: read-out: Average of % corrected affected; for pest or weed control at 0.00625 % strength: 0.00625 % w/v; for pest or weed control at 0.0125 % strength: 0.0125 % w/v; for pest or weed control at 0.025 % strength: 0.025 % w/v; for pest or weed control at 0.05 % strength: 0.05 % w/v; for pest or weed control at 0.1 % strength: 0.1 % w/v. The format is in vivo.
Source text: as §1, §2, §3, §4

The mark [3] stands for this setting: 24 h, Aphids, 24 hours post application.
Setting [4] is: 48 h, Aphids, 48 hours post application.
Where [5] appears, read: 24 h, Caterpillars, 24 hours post application.
Where [6] appears, read: 48 h, Caterpillars, 48 hours post application.

`COC(CN(Cc1ccc(Cl)nc1)C1=CC(=O)OC1)OC` [Compound 5, 3-[(6-Chloro-3-pyridyl)methyl-(2,2-dimethoxyethyl)amino]-2H-furan-5-one]: in test [1] (setting [3]), the pest or weed control at 0.00625 % strength lay within 1 to 19%, the pest or weed control at 0.0125 % strength fell in the range of 1 to 19%, the pest or weed control at 0.025 % strength was in the range of 1 to 19% and the pest or weed control at 0.05 % strength fell in the range of 20 to 39%. Also, in test [1] (setting [3]), the pest or weed control at 0.1 % strength is 1 to 19%. Besides, in test [1] (setting [4]), the pest or weed control at 0.00625 % strength was in the range of 1 to 19%, the pest or weed control at 0.0125 % strength was in the range of 1 to 19%, the pest or weed control at 0.025 % strength lay in the range of 1 to 19% and the pest or weed control at 0.05 % strength is 20 to 39%. Besides, the pest or weed control at 0.1 % strength in test [1] (setting [4]) is 1 to 19%. Further, in test [2] (setting [5]), the pest or weed control at 0.00625 % strength fell in the range of 1 to 19%, the pest or weed control at 0.0125 % strength lay in the range of 1 to 19%, the pest or weed control at 0.025 % strength lay in the range of 1 to 19% and the pest or weed control at 0.05 % strength lay in the range of 1 to 19%. The pest or weed control at 0.1 % strength in test [2] (setting [5]) lay in the range of 1 to 19%. Besides, in test [2] (setting [6]), the pest or weed control at 0.00625 % strength was in the range of 1 to 19%, the pest or weed control at 0.0125 % strength lay in the range of 1 to 19%, the pest or weed control at 0.025 % strength lay in the range of 1 to 19% and the pest or weed control at 0.05 % strength is 1 to 19%. Further, the pest or weed control at 0.1 % strength in test [2] (setting [6]) is 20 to 39%.
Consider `N#CCN(Cc1ccc(Cl)nc1)C1=CC(=O)OC1` [Compound 7, 2-[(6-Chloro-3-pyridyl)methyl-(5-oxo-2H-furan-3-yl)amino]acetonitrile], for which, in test [1] (setting [3]), the pest or weed control at 0.00625 % strength lay in the range of 1 to 19%, the pest or weed control at 0.0125 % strength is 20 to 39%, the pest or weed control at 0.025 % strength lay within 20 to 39% and the pest or weed control at 0.05 % strength lay in the range of 40 to 59%. Also, the pest or weed control at 0.1 % strength in test [1] (setting [3]) was 1 to 19%. In addition, in test [1] (setting [4]), the pest or weed control at 0.00625 % strength is 40 to 59%, the pest or weed control at 0.0125 % strength was 40 to 59%, the pest or weed control at 0.025 % strength lay in the range of 40 to 59% and the pest or weed control at 0.05 % strength fell in the range of 40 to 59%. The pest or weed control at 0.1 % strength in test [1] (setting [4]) is 1 to 19%. For the same compound, in test [2] (setting [5]), the pest or weed control at 0.00625 % strength was 1 to 19%, the pest or weed control at 0.0125 % strength was 1 to 19%, the pest or weed control at 0.025 % strength lay in the range of 1 to 19% and the pest or weed control at 0.05 % strength came to 0%. The pest or weed control at 0.1 % strength in test [2] (setting [5]) fell in the range of 1 to 19%. For the same compound, in test [2] (setting [6]), the pest or weed control at 0.00625 % strength lay in the range of 1 to 19%, the pest or weed control at 0.0125 % strength turned out to be 0%, the pest or weed control at 0.025 % strength was 1 to 19% and the pest or weed control at 0.05 % strength came out at 0%. In addition, the pest or weed control at 0.1 % strength in test [2] (setting [6]) was 1 to 19%.
Regarding `Cc1cc(C2=NOC(c3cc(Cl)cc(Cl)c3)(C(F)(F)F)C2)ccc1SCC(=O)NCC(F)(F)F` (centres unmarked) [Compound 15, 2-[4-[5-(3,5-dichlorophenyl)-5-(trifluoromethyl)-4H-isoxazol-3-yl]-2-methyl-phenyl]sulfanyl-N-(2,2,2-trifluoroethyl)acetamide, reference compound], in test [1] (24 h), the pest or weed control at 0.000125 % strength lay within 1 to 19%, the pest or weed control at 0.00025 % strength is 1 to 19%, the pest or weed control at 0.0005 % strength lay within 1 to 19% and the pest or weed control at 0.001 % strength fell in the range of 1 to 19%. Moreover, in test [1] (24 h), the pest or weed control at 0.002 % strength turned out to be 0%. Moreover, in test [1] (48 h), the pest or weed control at 0.000125 % strength lay in the range of 1 to 19%, the pest or weed control at 0.00025 % strength was 1 to 19%, the pest or weed control at 0.0005 % strength was in the range of 1 to 19% and the pest or weed control at 0.001 % strength is 20 to 39%. Further, in test [1] (48 h), the pest or weed control at 0.002 % strength was in the range of 20 to 39%. In test [2] (24 h), the pest or weed control at 0.000125 % strength lay within 1 to 19%, the pest or weed control at 0.00025 % strength fell in the range of 1 to 19%, the pest or weed control at 0.0005 % strength is 1 to 19% and the pest or weed control at 0.001 % strength is 1 to 19%. In test [2] (24 h), the pest or weed control at 0.002 % strength lay in the range of 1 to 19%. Moreover, in test [2] (48 h), the pest or weed control at 0.000125 % strength was found to be 0%, the pest or weed control at 0.00025 % strength is 1 to 19%, the pest or weed control at 0.0005 % strength was 1 to 19% and the pest or weed control at 0.001 % strength lay in the range of 1 to 19%. In addition, in test [2] (48 h), the pest or weed control at 0.002 % strength was 1 to 19%.
With `Cc1cc(C2=NCC(c3cc(Cl)cc(Cl)c3)(C(F)(F)F)O2)ccc1SCC(=O)NCC(F)(F)F` (centres unmarked) [Compound 18, 2-[4-[5-(3,5-dichlorophenyl)-5-(trifluoromethyl)-4H-oxazol-2-yl]-2-methyl-phenyl]sulfanyl-N-(2,2,2-trifluoroethyl)acetamide], the pest or weed control at 0.000125 % strength fell in the range of 1 to 19% in test [1] (24 h, Aphids, 0.000125 % w/v, 24 hours post application); 1 to 19% in test [1] (48 h, Aphids, 0.000125 % w/v, 48 hours post application); 1 to 19% in test [2] (24 h, Caterpillars, 0.000125 % w/v, 24 hours post application); 1 to 19% in test [2] (48 h, Caterpillars, 0.000125 % w/v, 48 hours post application). Also, the pest or weed control at 0.00025 % strength is 1 to 19% in test [1] (24 h, Aphids, 0.00025 % w/v, 24 hours post application); 1 to 19% in test [1] (48 h, Aphids, 0.00025 % w/v, 48 hours post application); 0% in test [2] (24 h, Caterpillars, 0.00025 % w/v, 24 hours post application); 1 to 19% in test [2] (48 h, Caterpillars, 0.00025 % w/v, 48 hours post application). Also, the pest or weed control at 0.0005 % strength in test [1] (24 h, Aphids, 0.0005 % w/v, 24 hours post application) fell in the range of 1 to 19%; in test [1] (48 h, Aphids, 0.0005 % w/v, 48 hours post application), 1 to 19%; in test [2] (24 h, Caterpillars, 0.0005 % w/v, 24 hours post application) it was 1 to 19%; in test [2] (48 h, Caterpillars, 0.0005 % w/v, 48 hours post application), 1 to 19%. Further, the pest or weed control at 0.001 % strength lay in the range of 1 to 19% in test [1] (24 h, Aphids, 0.001 % w/v, 24 hours post application); 1 to 19% in test [1] (48 h, Aphids, 0.001 % w/v, 48 hours post application); 1 to 19% in test [2] (24 h, Caterpillars, 0.001 % w/v, 24 hours post application); 1 to 19% in test [2] (48 h, Caterpillars, 0.001 % w/v, 48 hours post application). Moreover, the pest or weed control at 0.002 % strength in test [1] (24 h, Aphids, 0.002 % w/v, 24 hours post application) was 1 to 19%; in test [1] (48 h, Aphids, 0.002 % w/v, 48 hours post application), 1 to 19%; in test [2] (24 h, Caterpillars, 0.002 % w/v, 24 hours post application), 1 to 19%; in test [2] (48 h, Caterpillars, 0.002 % w/v, 48 hours post application), 0%.
